Experimental data from ChEMBL document CHEMBL1157917, “Structure-based rational design, synthesis and antifungal activity of oxime-containing azole derivatives” (2010).
Converted amounts (≈) assume the structure as drawn.

How the values were obtained:
Assay type in all cases: functional
[1] = system: Trichophyton rubrum; assay: Antifungal activity against Trichophyton rubrum after 7 days by serial dilution method; conditions: 168 h
[2] = system: Candida tropicalis; assay: Antifungal activity against Candida tropicalis after 24 hrs by serial dilution method
[3] = system: Cryptococcus neoformans; assay: Antifungal activity against Cryptococcus neoformans after 72 hrs by serial dilution method
[4] = system: Candida albicans; assay: Antifungal activity against Candida albicans after 24 hrs by serial dilution method
[5] = system: Pichia kudriavzevii; assay: Antifungal activity against Candida krusei after 24 hrs by serial dilution method
[6] = system: Aspergillus fumigatus; assay: Antifungal activity against Aspergillus fumigatus after 7 days by serial dilution method; conditions: 168 h
[7] = system: Candida parapsilosis; assay: Antifungal activity against Candida parapsilosis after 24 hrs by serial dilution method; conditions: Lodderomyces parapsilosis

| Compound | MIC80 [1] [µg/mL] | MIC80 [2] [µg/mL] | MIC80 [3] [µg/mL] | MIC80 [4] [µg/mL] | MIC80 [5] [µg/mL] | MIC80 [6] [µg/mL] | MIC80 [7] [µg/mL] |
| --- | --- | --- | --- | --- | --- | --- | --- |
| OC(CN1CCC(=NOCc2ccc(Cl)cc2)CC1)(Cn1cncn1)c1ccc(F)cc1F (racemic) | 0.0625 (≈ 0.131 µM) | 0.0625 (≈ 0.131 µM) | 0.001 (≈ 0.0021 µM) | 0.0625 (≈ 0.131 µM) | 0.25 (≈ 0.525 µM) | 1 (≈ 2.1 µM) | 0.016 (≈ 0.0336 µM) |
| OC(CN1CCC(=NOCc2ccccc2)CC1)(Cn1cncn1)c1ccc(F)cc1F (racemic) | 0.0625 (≈ 0.142 µM) | 0.001 (≈ 0.00227 µM) | 0.016 (≈ 0.0362 µM) | 0.004 (≈ 0.00906 µM) | 0.0625 (≈ 0.142 µM) | 1 (≈ 2.27 µM) | 0.004 (≈ 0.00906 µM) |
| OC(CN1CCC(=NOCc2ccccc2Cl)CC1)(Cn1cncn1)c1ccc(F)cc1F (racemic) | 0.0625 (≈ 0.131 µM) | 0.016 (≈ 0.0336 µM) | 0.016 (≈ 0.0336 µM) | 0.016 (≈ 0.0336 µM) | 0.25 (≈ 0.525 µM) | 1 (≈ 2.1 µM) | 0.004 (≈ 0.0084 µM) |
| C=Cc1ccc(CON=C2CCN(CC(O)(Cn3cncn3)c3ccc(F)cc3F)CC2)cc1 (racemic) | 16 (≈ 34.2 µM) | 64 (≈ 137 µM) | 16 (≈ 34.2 µM) | 16 (≈ 34.2 µM) | 64 (≈ 137 µM) | 64 (≈ 137 µM) | 64 (≈ 137 µM) |
| Cc1cccc(CON=C2CCN(CC(O)(Cn3cncn3)c3ccc(F)cc3F)CC2)c1 (racemic) | 16 (≈ 35.1 µM) | 64 (≈ 141 µM) | 16 (≈ 35.1 µM) | 16 (≈ 35.1 µM) | 64 (≈ 141 µM) | 64 (≈ 141 µM) | 64 (≈ 141 µM) |
| OC(CN1CCC(=NOCc2ccc(Br)cc2)CC1)(Cn1cncn1)c1ccc(F)cc1F (racemic) | 0.016 (≈ 0.0307 µM) | 0.004 (≈ 0.00769 µM) | 0.016 (≈ 0.0307 µM) | 0.016 (≈ 0.0307 µM) | 0.25 (≈ 0.48 µM) | 1 (≈ 1.92 µM) | 0.016 (≈ 0.0307 µM) |
| OC(CN1CCC(=NOCc2cccc(F)c2)CC1)(Cn1cncn1)c1ccc(F)cc1F (racemic) | 0.0625 (≈ 0.136 µM) | 0.016 (≈ 0.0348 µM) | 0.016 (≈ 0.0348 µM) | 0.016 (≈ 0.0348 µM) | 0.25 (≈ 0.544 µM) | 0.25 (≈ 0.544 µM) | 0.016 (≈ 0.0348 µM) |
| CCCc1ccc(CON=C2CCN(CC(O)(Cn3cncn3)c3ccc(F)cc3F)CC2)cc1 (racemic) | 4 (≈ 8.27 µM) | 64 (≈ 132 µM) | 16 (≈ 33.1 µM) | 16 (≈ 33.1 µM) | 64 (≈ 132 µM) | 64 (≈ 132 µM) | 64 (≈ 132 µM) |
| OC(CN1CCC(=NOCc2ccc3ccccc3c2)CC1)(Cn1cncn1)c1ccc(F)cc1F (racemic) | 0.0625 (≈ 0.127 µM) | 0.016 (≈ 0.0326 µM) | 0.016 (≈ 0.0326 µM) | 0.016 (≈ 0.0326 µM) | 0.25 (≈ 0.509 µM) | 1 (≈ 2.03 µM) | 0.016 (≈ 0.0326 µM) |
| Cc1ccc(CON=C2CCN(CC(O)(Cn3cncn3)c3ccc(F)cc3F)CC2)cc1 (racemic) | 16 (≈ 35.1 µM) | 64 (≈ 141 µM) | 16 (≈ 35.1 µM) | 64 (≈ 141 µM) | 16 (≈ 35.1 µM) | 64 (≈ 141 µM) | 64 (≈ 141 µM) |
| O=[N+]([O-])c1cccc(CON=C2CCN(CC(O)(Cn3cncn3)c3ccc(F)cc3F)CC2)c1 (racemic) | 0.25 (≈ 0.514 µM) | 1 (≈ 2.06 µM) | 0.0625 (≈ 0.128 µM) | 1 (≈ 2.06 µM) | 1 (≈ 2.06 µM) | 1 (≈ 2.06 µM) | 0.0625 (≈ 0.128 µM) |
| OC(CN1CCC(=NOCc2ccc(Cl)cc2Cl)CC1)(Cn1cncn1)c1ccc(F)cc1F (racemic) | 0.0625 (≈ 0.122 µM) | 0.016 (≈ 0.0313 µM) | 0.016 (≈ 0.0313 µM) | 0.016 (≈ 0.0313 µM) | 0.25 (≈ 0.49 µM) | 4 (≈ 7.84 µM) | 0.016 (≈ 0.0313 µM) |
| OC(CN1CCC(=NOCc2cccc(Br)c2)CC1)(Cn1cncn1)c1ccc(F)cc1F (racemic) | 0.0625 (≈ 0.12 µM) | 0.004 (≈ 0.00769 µM) | 0.016 (≈ 0.0307 µM) | 0.016 (≈ 0.0307 µM) | 0.25 (≈ 0.48 µM) | 1 (≈ 1.92 µM) | 0.016 (≈ 0.0307 µM) |
| COc1cccc(CON=C2CCN(CC(O)(Cn3cncn3)c3ccc(F)cc3F)CC2)c1 (racemic) | 16 (≈ 33.9 µM) | 64 (≈ 136 µM) | 16 (≈ 33.9 µM) | 16 (≈ 33.9 µM) | 64 (≈ 136 µM) | 64 (≈ 136 µM) | 64 (≈ 136 µM) |
| OC(CN1CCC(=NOCc2cccc(C(F)(F)F)c2)CC1)(Cn1cncn1)c1ccc(F)cc1F (racemic) | 16 (≈ 31.4 µM) | 64 (≈ 126 µM) | 16 (≈ 31.4 µM) | 16 (≈ 31.4 µM) | 64 (≈ 126 µM) | 64 (≈ 126 µM) | 64 (≈ 126 µM) |
| OC(CN1CCC(=NOCc2ccccc2Br)CC1)(Cn1cncn1)c1ccc(F)cc1F (racemic) | 0.0625 (≈ 0.12 µM) | 0.004 (≈ 0.00769 µM) | 0.004 (≈ 0.00769 µM) | 0.016 (≈ 0.0307 µM) | 0.25 (≈ 0.48 µM) | 1 (≈ 1.92 µM) | 0.0625 (≈ 0.12 µM) |

| Compound | MIC80 [1] [µg/mL] | MIC80 [2] [µg/mL] | MIC80 [3] [µg/mL] | MIC80 [4] [µg/mL] | MIC80 [5] [µg/mL] | MIC80 [6] [µg/mL] | MIC80 [7] [µg/mL] |
| --- | --- | --- | --- | --- | --- | --- | --- |
| COc1ccc(CON=C2CCN(CC(O)(Cn3cncn3)c3ccc(F)cc3F)CC2)cc1 (racemic) | 4 (≈ 8.48 µM) | 4 (≈ 8.48 µM) | 4 (≈ 8.48 µM) | 1 (≈ 2.12 µM) | 4 (≈ 8.48 µM) | 64 (≈ 136 µM) | 4 (≈ 8.48 µM) |
| Cc1ccccc1CON=C1CCN(CC(O)(Cn2cncn2)c2ccc(F)cc2F)CC1 (racemic) | 16 (≈ 35.1 µM) | 64 (≈ 141 µM) | 64 (≈ 141 µM) | 16 (≈ 35.1 µM) | 64 (≈ 141 µM) | 64 (≈ 141 µM) | 64 (≈ 141 µM) |
| OC(CN1CCC(=NOCc2ccc(C(F)(F)F)cc2)CC1)(Cn1cncn1)c1ccc(F)cc1F (racemic) | 16 (≈ 31.4 µM) | 64 (≈ 126 µM) | 16 (≈ 31.4 µM) | 16 (≈ 31.4 µM) | 64 (≈ 126 µM) | 64 (≈ 126 µM) | 64 (≈ 126 µM) |
| C[C@@H](c1ncncc1F)[C@](O)(Cn1cncn1)c1ccc(F)cc1F [VORICONAZOLE] | 0.004 (≈ 0.0115 µM) | 0.004 (≈ 0.0115 µM) | 0.004 (≈ 0.0115 µM) | 0.004 (≈ 0.0115 µM) | 0.016 (≈ 0.0458 µM) | 0.0625 (≈ 0.179 µM) | 0.004 (≈ 0.0115 µM) |
| OC(CN1CCC(=NOCc2ccccc2F)CC1)(Cn1cncn1)c1ccc(F)cc1F (racemic) | 0.0625 (≈ 0.136 µM) | 0.001 (≈ 0.00218 µM) | 0.004 (≈ 0.00871 µM) | 0.016 (≈ 0.0348 µM) | 0.25 (≈ 0.544 µM) | 1 (≈ 2.18 µM) | 0.0625 (≈ 0.136 µM) |
| N#Cc1ccc(CON=C2CCN(CC(O)(Cn3cncn3)c3ccc(F)cc3F)CC2)cc1 (racemic) | 0.0625 (≈ 0.134 µM) | 0.0625 (≈ 0.134 µM) | 0.016 (≈ 0.0343 µM) | 0.0625 (≈ 0.134 µM) | 0.25 (≈ 0.536 µM) | 1 (≈ 2.14 µM) | 0.0625 (≈ 0.134 µM) |
| O=[N+]([O-])c1ccc(CON=C2CCN(CC(O)(Cn3cncn3)c3ccc(F)cc3F)CC2)cc1 (racemic) | 0.0625 (≈ 0.128 µM) | 0.004 (≈ 0.00822 µM) | 0.016 (≈ 0.0329 µM) | 0.016 (≈ 0.0329 µM) | 0.25 (≈ 0.514 µM) | 1 (≈ 2.06 µM) | 0.004 (≈ 0.00822 µM) |
| CCc1ccc(CON=C2CCN(CC(O)(Cn3cncn3)c3ccc(F)cc3F)CC2)cc1 (racemic) | 16 (≈ 34.1 µM) | 64 (≈ 136 µM) | 16 (≈ 34.1 µM) | 16 (≈ 34.1 µM) | 64 (≈ 136 µM) | 64 (≈ 136 µM) | 64 (≈ 136 µM) |
| OC(Cn1cncn1)(Cn1cncn1)c1ccc(F)cc1F [FLUCONAZOLE] | 1 (≈ 3.27 µM) | 1 (≈ 3.27 µM) | 0.0625 (≈ 0.204 µM) | 0.25 (≈ 0.816 µM) | 1 (≈ 3.27 µM) | > 64 | 0.25 (≈ 0.816 µM) |
| OC(CN1CCC(=NOCc2ccc(F)cc2)CC1)(Cn1cncn1)c1ccc(F)cc1F (racemic) | 0.0625 (≈ 0.136 µM) | 0.0097 (≈ 0.0211 µM) | 0.016 (≈ 0.0348 µM) | 0.016 (≈ 0.0348 µM) | 0.25 (≈ 0.544 µM) | 1 (≈ 2.18 µM) | 0.004 (≈ 0.00871 µM) |
| CCC(C)n1ncn(-c2ccc(N3CCN(c4ccc(OCC5COC(Cn6cncn6)(c6ccc(Cl)cc6Cl)O5)cc4)CC3)cc2)c1=O (configuration not stated) [ITRACONAZOLE] | 0.004 (≈ 0.00567 µM) | 0.0625 (≈ 0.0886 µM) | 0.004 (≈ 0.00567 µM) | 0.016 (≈ 0.0227 µM) | 0.25 (≈ 0.354 µM) | 1 (≈ 1.42 µM) | 0.0625 (≈ 0.0886 µM) |
| ON=C1CCN(CC(O)(Cn2cncn2)c2ccc(F)cc2F)CC1 (configuration not stated) | 16 (≈ 45.5 µM) | 1 (≈ 2.85 µM) | 1 (≈ 2.85 µM) | 1 (≈ 2.85 µM) | 4 (≈ 11.4 µM) | > 64 | 16 (≈ 45.5 µM) |
| OC(CN1CCC(=NOCc2cccc3ccccc23)CC1)(Cn1cncn1)c1ccc(F)cc1F (racemic) | 0.25 (≈ 0.509 µM) | 0.25 (≈ 0.509 µM) | 0.0625 (≈ 0.127 µM) | 0.0625 (≈ 0.127 µM) | 4 (≈ 8.14 µM) | 1 (≈ 2.03 µM) | 0.0625 (≈ 0.127 µM) |
| OC(CN1CCC(=NOCc2ccc(Cl)c(Cl)c2)CC1)(Cn1cncn1)c1ccc(F)cc1F (racemic) | 0.0625 (≈ 0.122 µM) | 0.25 (≈ 0.49 µM) | 0.0625 (≈ 0.122 µM) | 0.25 (≈ 0.49 µM) | 0.25 (≈ 0.49 µM) | 1 (≈ 1.96 µM) | 0.25 (≈ 0.49 µM) |
| OC(CN1CCC(=NOCc2cccc(Cl)c2)CC1)(Cn1cncn1)c1ccc(F)cc1F (racemic) | 0.016 (≈ 0.0336 µM) | 0.0625 (≈ 0.131 µM) | 0.001 (≈ 0.0021 µM) | 0.016 (≈ 0.0336 µM) | 0.25 (≈ 0.525 µM) | 1 (≈ 2.1 µM) | 0.0625 (≈ 0.131 µM) |
